# Entries after “also recorded” stand apart in the source; their conditions may differ. Read-outs that look alike come from different tables or passages of the source.
# What was measured:
# ARAT = assay: In vitro microsomal esterification of retinol, ARAT (retinyl palmitate formation); assay type: biochemical, bovine; conditions: 10 micromolar retinol, 1 hour, 37° C.
# Text: It is believed that the use of retinol or esters of retinol would be preferred over retinoic acid. Retinol is an endogenous compound which occurs naturally in the human body and is essential for normal epithelial cell differentiation. Retinol is also considered much safer than retinoic acid. Esters of retinol hydrolyze in-vivo to produce retinol. […] These esterification reactions are very efficient in keratinocytes--the majority (95%) of cellular retinoids are in the form of retinyl fatty esters.
# (§1) Microsomes are obtained as described in: J. C.
# Human keratinocytes [1] = assay: 3H-thymidine incorporation, keratinocyte proliferation (Example 3); assay type: cell-based; conditions: for activity at […]: Homo sapiens, Keratinocyte, 250 nM, read-out: % Control (thymidine incorporation)
# Procedure: (§2) Human keratinocytes, isolated from neonatal foreskin by trypsin treatment were grown in Dulbecco Modification Eagle (DME) Hams F12 (1:1) medium/10% fetal calf serum in the presence of irradiated 3T3 mouse fibroblasts for establishing dividing keratinocyte colonies. Cells were grown under the above condition until their second passage and kept frozen for future use. Frozen second passage keratinocytes were thawed and plated into the above medium and grown for five days before they were switched to a serum-free MCDB 153-based medium keratinocyte growth medium (KGM) from Clonetics Corporation, San Diego, Calif., containing 0.15 mM Ca, or keratinocyte serum-free media (KSFM) from GIBCO containing 0.09 mM Ca). On day 7, when the cells were 80-90% confluent, they were trypsinized and plated in the serum-free medium for the various experiments.
# The incorporation of ^3 H-thymidine by cultured keratinocytes was used as an assay of keratinocyte proliferation. Thymidine is one of four deoxynucleosides which are the monomeric units of DNA, the universal library of genetic information in the animal kingdom. Prior to cell division of a somatic cell such as a keratinocyte, the complete genome of the cell undergoing cell division is replicated. This involves large scale DNA synthesis by the cell and enables both daughter cells to receive identical copies of the genetic material. When 3H-thymidine is included in the culture media of keratinocytes which are synthesizing DNA in preparation for cell division then the labelled nucleoside is incorporated into the newly synthesized DNA. The extent of incorporation of ^3 H-thymidine into a population of cells is proportional to the rate of DNA synthesis by this population of cells and therefore an indication of their cellular proliferation.
# For Example 3, the following procedure was employed to measure thymidine incorporation:
# Human keratinocytes were plated in 24-well plates at a density of 40,000 cells/well in 1 ml keratinocyte growth media. The cells were allowed to grow until they were 60-70% confluent (approx. 4 days), after which they were treated (in triplicate) with test agents in media for 4 hours. Tritiated thymidine (1 microcurie/ml) was then added, and the cells were incubated for an additional 18 hrs. The medium was removed and the cells were incubated for 30 minutes with ice cold 10% trichloroccetic acid. The cells were then washed 5× with 5% TCA and dissolved in 0.5 ml 0.1M NaOH. After neutralization with 0.1M HCl, aliquots were removed to measure protein and radioactivity by liquid scintillation counting.
# ^3 H-Thymidine incorporation was measured according to the procedure described in Materials and Methods section above.
# retinol esterification = assay: In vitro microsomal esterification of retinol, ARAT and LRAT together (statements in words); assay type: biochemical, bovine; conditions: compared with farnesol
# Text: as §1
# Human keratinocytes [2] = assay: 3H-thymidine incorporation, keratinocyte proliferation (Example 1); assay type: cell-based; conditions: […]10^-7, […]10^-8 and […]10^-9 M; over ethanol control and retinol treatments
# Procedure: as §2
# The incorporation of ^3 H-thymidine by cultured keratinocytes was used as an assay of keratinocyte proliferation. […]
# Keratinocytes (that were cultured as described above) were plated in 24 well plates at a density of about 20,000 cells per well in 1 ml media. […] Disintegrations per minute (DPM) from ^3 H labelling of DNA was determined by liquid scintillation counting of 900 μl of the cell preparation. Thymidine incorporation results were expressed as DPM/μg protein.
# TGase I = assay: Transglutaminase (TGase I) ELISA normalized to DNA, keratinocyte differentiation (Example 1); assay type: cell-based, human; conditions: […]10^-7, […]10^-8 and […]10^-9 M
# Procedure: as §2
# During the process of terminal differentiation in the epidermis, a 15 nm thick layer of protein, known as the cornified envelope (CE) is formed on the inner surface of the cell periphery. The CE is composed of numerous distinct proteins which have been cross-linked together by the formation of N^E -(γ-glutamyl) lysine isodipeptide bonds catalyzed by the action of at least two different transglutaminases (TGases) expressed in the epidermis. TGase I is expressed in abundance in the differentiated layers of the epidermis, especially the granular layer, but is absent in the undifferentiated basal epidermis. […]
# Keratinocytes (cultured as described above) were plated in 96 well plates at a density of 3,000 cells per well in 200 μl media. […] The absorbance of samples was read at 492 nm in the plate reader. […] TGase levels were determined by subtracting background from the readings from each treatment and determining mean±s.d. for the replicates exposed to both Ab.
# The level of TGase-1 detected after treatment of the cells could be influenced by cell number, i.e., the greater the number of cells the greater the level of TGase-1 detected. […]
Compound,% INHIB. ARAT (ARAT; 10 μM) [%],% INHIB. ARAT (ARAT; 100 μM) [%],"proliferation enhancing effect of retinol (in words) (Human keratinocytes [1]; 10 nM geranyl geraniol with 250 nM retinol, compared with retinoic acid)",inhibition of retinol esterification (in words) (retinol esterification),keratinocyte proliferation (in words) (Human keratinocytes [2]),decrease in transglutaminase level (in words) (TGase I),keratinocyte differentiation (in words) (TGase I; over ethanol control and corresponding retinol treatments),activity at […] (Human keratinocytes [1]; Experiment #1) [%],activity at […] (Human keratinocytes [1]; Experiment #2) [%]
"CC(C)=CCCC(C)=CCCC(C)=CCO [Farnesol, farnesol]",20,43,,,,,,,
"CC(C)=CCC/C(C)=C/CC/C(C)=C/CC/C(C)=C/CO [Geranyl Geraniol, geranyl geraniol]",38,81,significantly increase the proliferation enhancing effect of retinol to a level similar to that which can be achieved with a comparable amount of retinoic acid,"substantially more potent esterification inhibitor, than farnesol; also recorded: substantially more potent at inhibiting retinol esterification than other terpenes, e.g., farnesol",,,,,
"CC1=C(/C=C/C(C)=C/C=C/C(C)=C/C(=O)O)C(C)(C)CCC1 [RA, Retinoic Acid]",,,,,significantly increased keratinocyte proliferation,dose dependent,decreased keratinocyte differentiation,156,163
"CC1=C(/C=C/C(C)=C/C=C/C(C)=C/CO)C(C)(C)CCC1 [ROH, Retinol]",,,,,,dose dependent,,108,107

# Source: patent US5756109A, “Skin care compositions containing geranyl geraniol and retinol or retinyl esters” (Chesebrough-Pond's USA Co., Division of Conopco, Inc., priority 1996, dated 1998)
